Data taken from ChEMBL document CHEMBL3885881, “DrugMatrix”.

Species: Rattus norvegicus
Assay: DrugMatrix - Regimen: Daily Repeat
Type: toxicity, organism-based, Sprague-Dawley
Design: regimen Daily Repeat, gender Male, age 6-8 weeks
Details: in vivo, ip, 60 mg/kg, route intraperitoneal, dose level High, vehicle 100 % PBS; for BASOPHIL / EOSINOPHIL / ERYTHROCYTE COUNT / HEMATOCRIT / HEMOGLOBIN / LEUKOCYTE COUNT / LYMPHOCYTE / MEAN CORPUSCULAR HEMOGLOBIN / MEAN CORPUSCULAR HEMOGLOBIN CONCENTRATION / MEAN CORPUSCULAR VOLUME / MONOCYTE / NEUTROPHIL / PLATELET COUNT: tissue Blood; for ALANINE AMINOTRANSFERASE / ALBUMIN / ALKALINE PHOSPHATASE / ASPARTATE AMINOTRANSFERASE / BLOOD UREA NITROGEN / CARBON DIOXIDE / CHLORIDE / CHOLESTEROL / CREATINE PHOSPHOKINASE / CREATININE / GLUCOSE / LACTATE DEHYDROGENASE / LIPASE / PHOSPHORUS / POTASSIUM / SODIUM / TOTAL BILIRUBIN / TOTAL PROTEIN / URIC ACID: tissue Plasma

In the case of `C[C@H]1C(=O)O[C@@H]2CCN3CC=C(COC(=O)[C@](C)(O)[C@]1(C)O)[C@H]23` [MONOCROTALINE], the BASOPHIL (72 h, time 3 day) was 1.7%, the EOSINOPHIL (72 h, time 3 day) was 1% and the “ERYTHROCYTE COUNT” value (72 h, time 3 day) was 6.77 x10E6/uL. The HEMATOCRIT (72 h, time 3 day) was 46.53%, the HEMOGLOBIN (72 h, time 3 day) was 14.7 G/DL and the “LEUKOCYTE COUNT” value (72 h, time 3 day) was 8.87 x10E3/uL. The LYMPHOCYTE (72 h, time 3 day) was 84.3%, the “MEAN CORPUSCULAR HEMOGLOBIN” value (72 h, time 3 day) was 21.73 pg and the “MEAN CORPUSCULAR HEMOGLOBIN CONCENTRATION” value (72 h, time 3 day) was 31.63 G/DL. For the same molecule, the “MEAN CORPUSCULAR VOLUME” value (72 h, time 3 day) was 68.73 fL, the MONOCYTE (72 h, time 3 day) was 1.9% and the NEUTROPHIL (72 h, time 3 day) was 9.57%. The “PLATELET COUNT” value (72 h, time 3 day) was 1156.67 x10E3/uL, the “ALANINE AMINOTRANSFERASE” value (72 h, time 3 day) was 33.67 u/L and the ALBUMIN (72 h, time 3 day) was 4.27 G/DL. The “ALKALINE PHOSPHATASE” value (72 h, time 3 day) was 425.33 u/L, the “ASPARTATE AMINOTRANSFERASE” value (72 h, time 3 day) was 77.33 u/L and the “BLOOD UREA NITROGEN” value (72 h, time 3 day) was 16 mg/dL. The “CARBON DIOXIDE” value (72 h, time 3 day) was 30 mmol/L, the CHLORIDE (72 h, time 3 day) was 104.33 MEQ/L and the CHOLESTEROL (72 h, time 3 day) was 79 mg/dL. For the same molecule, the “CREATINE PHOSPHOKINASE” value (72 h, time 3 day) was 394.33 u/L, the CREATININE (72 h, time 3 day) was 0.47 mg/dL and the GLUCOSE (72 h, time 3 day) was 166.33 mg/dL. The “LACTATE DEHYDROGENASE” value (72 h, time 3 day) was 66 u/L, the LIPASE (72 h, time 3 day) was 14.67 u/L and the PHOSPHORUS (72 h, time 3 day) was 12.57 mg/dL. For the same molecule, the POTASSIUM (72 h, time 3 day) was 7.2 MEQ/L, the SODIUM (72 h, time 3 day) was 148.33 MEQ/L and the “TOTAL BILIRUBIN” value (72 h, time 3 day) was 0.47 mg/dL. The “TOTAL PROTEIN” value (72 h, time 3 day) was 6.57 G/DL, the “URIC ACID” value (72 h, time 3 day) was 1.77 mg/dL and the BASOPHIL (120 h, time 5 day) was 0.4%. For the same molecule, the EOSINOPHIL (120 h, time 5 day) was 0.6%, the “ERYTHROCYTE COUNT” value (120 h, time 5 day) was 7.1 x10E6/uL and the HEMATOCRIT (120 h, time 5 day) was 48.3%. The HEMOGLOBIN (120 h, time 5 day) was 14.93 G/DL, the “LEUKOCYTE COUNT” value (120 h, time 5 day) was 10.69 x10E3/uL and the LYMPHOCYTE (120 h, time 5 day) was 91.33%. For the same molecule, the “MEAN CORPUSCULAR HEMOGLOBIN” value (120 h, time 5 day) was 21.03 pg, the “MEAN CORPUSCULAR HEMOGLOBIN CONCENTRATION” value (120 h, time 5 day) was 30.93 G/DL and the “MEAN CORPUSCULAR VOLUME” value (120 h, time 5 day) was 68.03 fL. For the same molecule, the MONOCYTE (120 h, time 5 day) was 1.63%, the NEUTROPHIL (120 h, time 5 day) was 5.2% and the “PLATELET COUNT” value (120 h, time 5 day) was 1323.67 x10E3/uL. The “ALANINE AMINOTRANSFERASE” value (120 h, time 5 day) was 48 u/L, the ALBUMIN (120 h, time 5 day) was 4.1 G/DL and the “ALKALINE PHOSPHATASE” value (120 h, time 5 day) was 488 u/L. The “ASPARTATE AMINOTRANSFERASE” value (120 h, time 5 day) was 69 u/L, the “BLOOD UREA NITROGEN” value (120 h, time 5 day) was 13 mg/dL and the “CARBON DIOXIDE” value (120 h, time 5 day) was 30 mmol/L. For the same molecule, the CHLORIDE (120 h, time 5 day) was 108 MEQ/L, the CHOLESTEROL (120 h, time 5 day) was 65.67 mg/dL and the “CREATINE PHOSPHOKINASE” value (120 h, time 5 day) was 139 u/L. The CREATININE (120 h, time 5 day) was 0.23 mg/dL, the GLUCOSE (120 h, time 5 day) was 152.33 mg/dL and the “LACTATE DEHYDROGENASE” value (120 h, time 5 day) was 44.67 u/L. For the same molecule, the LIPASE (120 h, time 5 day) was 13.33 u/L, the PHOSPHORUS (120 h, time 5 day) was 14.7 mg/dL and the POTASSIUM (120 h, time 5 day) was 6.77 MEQ/L. For the same molecule, the SODIUM (120 h, time 5 day) was 155 MEQ/L, the “TOTAL BILIRUBIN” value (120 h, time 5 day) was 0.2 mg/dL and the “TOTAL PROTEIN” value (120 h, time 5 day) was 6.33 G/DL. For the same molecule, the “URIC ACID” value (120 h, time 5 day) was 1.63 mg/dL, the BASOPHIL ([…], time 14 day) was 0.38% and the EOSINOPHIL ([…], time 14 day) was 0.48%. The “ERYTHROCYTE COUNT” value ([…], time 14 day) was 8.25 x10E6/uL, the HEMATOCRIT ([…], time 14 day) was 49.54% and the HEMOGLOBIN ([…], time 14 day) was 16.32 G/DL. For the same molecule, the “LEUKOCYTE COUNT” value ([…], time 14 day) was 14.35 x10E3/uL, the LYMPHOCYTE ([…], time 14 day) was 85.94% and the “MEAN CORPUSCULAR HEMOGLOBIN” value ([…], time 14 day) was 19.8 pg. For the same molecule, the “MEAN CORPUSCULAR HEMOGLOBIN CONCENTRATION” value ([…], time 14 day) was 32.96 G/DL, the “MEAN CORPUSCULAR VOLUME” value ([…], time 14 day) was 60.04 fL and the MONOCYTE ([…], time 14 day) was 1.94%. For the same molecule, the NEUTROPHIL ([…], time 14 day) was 9.64%, the “PLATELET COUNT” value ([…], time 14 day) was 1232.8 x10E3/uL and the “ALANINE AMINOTRANSFERASE” value ([…], time 14 day) was 40.6 u/L. For the same molecule, the ALBUMIN ([…], time 14 day) was 4.46 G/DL, the “ALKALINE PHOSPHATASE” value ([…], time 14 day) was 403.4 u/L and the “ASPARTATE AMINOTRANSFERASE” value ([…], time 14 day) was 73.6 u/L. For the same molecule, the “BLOOD UREA NITROGEN” value ([…], time 14 day) was 15.2 mg/dL, the “CARBON DIOXIDE” value ([…], time 14 day) was 30.8 mmol/L and the CHLORIDE ([…], time 14 day) was 102.2 MEQ/L. For the same molecule, the CHOLESTEROL ([…], time 14 day) was 89.2 mg/dL, the “CREATINE PHOSPHOKINASE” value ([…], time 14 day) was 155.8 u/L and the CREATININE ([…], time 14 day) was 0.44 mg/dL. The GLUCOSE ([…], time 14 day) was 145 mg/dL, the “LACTATE DEHYDROGENASE” value ([…], time 14 day) was 118.6 u/L and the LIPASE ([…], time 14 day) was 18.2 u/L. The PHOSPHORUS ([…], time 14 day) was 9.42 mg/dL, the POTASSIUM ([…], time 14 day) was 6.64 MEQ/L and the SODIUM ([…], time 14 day) was 148.8 MEQ/L. For the same molecule, the “TOTAL BILIRUBIN” value ([…], time 14 day) was 0.56 mg/dL, the “TOTAL PROTEIN” value ([…], time 14 day) was 7.2 G/DL and the “URIC ACID” value ([…], time 14 day) was 2.16 mg/dL.
